{
  "source": "patent US20180140578A1",
  "about": "“METHODS AND COMPOSITIONS FOR THE DIAGNOSIS AND SELECTIVE TREATMENT OF CANCER” (Board of Regents of the University of Texas System, priority 2016, published 2018)",
  "assay_in_all_cases": "IC50 assay, NSCLC cell lines (Cell Titer Glo, total ATP)",
  "assay_type_in_all_cases": "cell-based",
  "key": {"[1]": {"test_system": "A549", "conditions": "Homo sapiens", "method": "(§1) Cells were plated at ˜15% confluence in a media comprising 5% concentration of fetal bovine serum supplemented with RPMI, which included 2 mM L-Glutamine in a 96 well dish. […] Following three days of incubation in a 5% CO2 incubator, the total ATP in each well was quantified using Cell Titer Glo (Promega). […] The solid lines represent the medians."}, "[2]": {"test_system": "HCC2018", "conditions": "Homo sapiens", "method": "as §1"}, "[3]": {"test_system": "H2887", "conditions": "Homo sapiens", "method": "as §1"}, "[4]": {"test_system": "H920", "conditions": "Homo sapiens", "method": "as §1"}, "[5]": {"test_system": "HOP62", "conditions": "Homo sapiens", "method": "as §1"}, "[6]": {"test_system": "H2106", "conditions": "Homo sapiens", "method": "as §1"}, "[7]": {"test_system": "H1155", "conditions": "Homo sapiens", "method": "as §1"}, "[8]": {"test_system": "H157", "conditions": "Homo sapiens", "method": "as §1"}, "[9]": {"test_system": "H720", "conditions": "Homo sapiens", "method": "as §1"}, "[10]": {"test_system": "HCC366", "conditions": "Homo sapiens", "method": "as §1"}, "[11]": {"test_system": "H2030", "conditions": "Homo sapiens", "method": "as §1"}, "[12]": {"test_system": "HCC1438", "conditions": "Homo sapiens", "method": "as §1"}, "[13]": {"test_system": "H1993", "conditions": "Homo sapiens", "method": "as §1"}, "[14]": {"test_system": "H2452", "conditions": "Homo sapiens", "method": "as §1"}, "[15]": {"test_system": "H460", "conditions": "Homo sapiens, NCI-H460, read-out: Indisulam IC50 (log 10) (converted), U2AF1 WT", "method": "as §1"}, "[16]": {"test_system": "H1693", "conditions": "Homo sapiens", "method": "as §1"}, "[17]": {"test_system": "A427", "conditions": "Homo sapiens", "method": "as §1"}, "[18]": {"test_system": "H2342", "conditions": "Homo sapiens", "method": "as §1"}, "[19]": {"test_system": "HCC44", "conditions": "Homo sapiens", "method": "as §1"}, "[20]": {"test_system": "H1581", "conditions": "Homo sapiens", "method": "as §1"}, "[21]": {"test_system": "H1755", "conditions": "Homo sapiens", "method": "as §1"}, "[22]": {"test_system": "H2228", "conditions": "Homo sapiens", "method": "as §1"}, "[23]": {"test_system": "H2126", "conditions": "Homo sapiens", "method": "as §1"}, "[24]": {"test_system": "H1648", "conditions": "Homo sapiens", "method": "as §1"}, "[25]": {"test_system": "HCC1359", "conditions": "Homo sapiens", "method": "as §1"}, "[26]": {"test_system": "H3122", "conditions": "Homo sapiens", "method": "as §1"}, "[27]": {"conditions": "read-out: Indisulam IC50 (log 10) (converted), U2AF1 WT"}, "[28]": {"conditions": "read-out: Indisulam IC50, U2AF1 WT"}},
  "note": "Where two headings read alike, the source gives them in different places.",
  "data": [
    {"smiles": "NS(=O)(=O)c1ccc(S(=O)(=O)Nc2cccc3c(Cl)c[nH]c23)cc1", "note": "[Indisulam, indisulam]", "values": [
      {"measurement": "IC50", "setting": "[1]; [27]", "value": 46.6, "unit": "µM"},
      {"measurement": "IC50", "setting": "[1]; [28]", "value": 46.6, "unit": "µM"},
      {"measurement": "IC50", "setting": "[2]; [27]", "value": 6.48, "unit": "µM"},
      {"measurement": "IC50", "setting": "[2]; [28]", "value": 6.48, "unit": "µM"},
      {"measurement": "IC50", "setting": "[3]; NCI-H2887, read-out: Indisulam IC50 (log 10) (converted), U2AF1 WT", "value": 9.63, "unit": "µM"},
      {"measurement": "IC50", "setting": "[3]; NCI-H2887, read-out: Indisulam IC50, U2AF1 WT", "value": 9.63, "unit": "µM"},
      {"measurement": "IC50", "setting": "[4]; [27]", "value": 2170, "unit": "nM"},
      {"measurement": "IC50", "setting": "[4]; [28]", "value": 2170, "unit": "nM"},
      {"measurement": "IC50", "setting": "[5]; HOP-62, read-out: Indisulam IC50 (log 10) (converted), U2AF1 WT", "value": 6.08, "unit": "µM"},
      {"measurement": "IC50", "setting": "[5]; HOP-62, read-out: Indisulam IC50, U2AF1 WT", "value": 6.08, "unit": "µM"},
      {"measurement": "IC50", "setting": "[6]; [27]", "value": 616, "unit": "nM"},
      {"measurement": "IC50", "setting": "[6]; [28]", "value": 616, "unit": "nM"},
      {"measurement": "IC50", "setting": "[7]; NCI-H1155, read-out: Indisulam IC50 (log 10) (converted), U2AF1 WT", "value": 242, "unit": "nM"},
      {"measurement": "IC50", "setting": "[7]; NCI-H1155, read-out: Indisulam IC50, U2AF1 WT", "value": 242, "unit": "nM"},
      {"measurement": "IC50", "setting": "[8]; NCI-H157, read-out: Indisulam IC50 (log 10) (converted), U2AF1 WT", "value": 140, "unit": "µM"},
      {"measurement": "IC50", "setting": "[8]; NCI-H157, read-out: Indisulam IC50, U2AF1 WT", "value": 140, "unit": "µM"},
      {"measurement": "IC50", "setting": "[9]; [27]", "value": 1790, "unit": "nM"},
      {"measurement": "IC50", "setting": "[9]; [28]", "value": 1790, "unit": "nM"},
      {"measurement": "IC50", "setting": "[10]; [27]", "value": 6.91, "unit": "µM"},
      {"measurement": "IC50", "setting": "[10]; [28]", "value": 6.91, "unit": "µM"},
      {"measurement": "IC50", "setting": "[11]; NCI-H2030, read-out: Indisulam IC50 (log 10) (converted), U2AF1 WT", "value": 79.1, "unit": "µM"},
      {"measurement": "IC50", "setting": "[11]; NCI-H2030, read-out: Indisulam IC50, U2AF1 WT", "value": 79.1, "unit": "µM"},
      {"measurement": "IC50", "setting": "[12]; [27]", "value": 22.7, "unit": "µM"},
      {"measurement": "IC50", "setting": "[12]; [28]", "value": 22.7, "unit": "µM"},
      {"measurement": "IC50", "setting": "[13]; NCI-H1993, read-out: Indisulam IC50 (log 10) (converted), U2AF1 WT", "value": 1420, "unit": "nM"},
      {"measurement": "IC50", "setting": "[13]; NCI-H1993, read-out: Indisulam IC50, U2AF1 WT", "value": 1420, "unit": "nM"},
      {"measurement": "IC50", "setting": "[14]; NCI-H2452, read-out: Indisulam IC50 (log 10) (converted), U2AF1 WT", "value": 1210, "unit": "nM"},
      {"measurement": "IC50", "setting": "[14]; NCI-H2452, read-out: Indisulam IC50, U2AF1 WT", "value": 1210, "unit": "nM"},
      {"measurement": "IC50", "setting": "[15]", "value": "≥ 500", "unit": "µM"},
      {"measurement": "IC50", "setting": "[16]; NCI-H1693, read-out: Indisulam IC50 (log 10) (converted), U2AF1 WT", "value": 5.17, "unit": "µM"},
      {"measurement": "IC50", "setting": "[16]; NCI-H1693, read-out: Indisulam IC50, U2AF1 WT", "value": 5.17, "unit": "µM"},
      {"measurement": "IC50", "setting": "[17]; A-427, read-out: Indisulam IC50 (log 10) (converted), U2AF1 WT", "value": 13.9, "unit": "µM"},
      {"measurement": "IC50", "setting": "[17]; A-427, read-out: Indisulam IC50, U2AF1 WT", "value": 13.9, "unit": "µM"},
      {"measurement": "IC50", "setting": "[18]; NCI-H2342, read-out: Indisulam IC50 (log 10) (converted), U2AF1 WT", "value": 58.6, "unit": "µM"},
      {"measurement": "IC50", "setting": "[18]; NCI-H2342, read-out: Indisulam IC50, U2AF1 WT", "value": 58.6, "unit": "µM"},
      {"measurement": "IC50", "setting": "[19]; [27]", "value": 23, "unit": "µM"},
      {"measurement": "IC50", "setting": "[19]; [28]", "value": 23, "unit": "µM"},
      {"measurement": "IC50", "setting": "[20]; NCI-H1581, read-out: Indisulam IC50 (log 10) (converted), U2AF1 WT", "value": 19.2, "unit": "µM"},
      {"measurement": "IC50", "setting": "[20]; NCI-H1581, read-out: Indisulam IC50, U2AF1 WT", "value": 19.2, "unit": "µM"},
      {"measurement": "IC50", "setting": "[21]; NCI-H1755, read-out: Indisulam IC50 (log 10) (converted), U2AF1 WT", "value": 252, "unit": "µM"},
      {"measurement": "IC50", "setting": "[21]; NCI-H1755, read-out: Indisulam IC50, U2AF1 WT", "value": 252, "unit": "µM"},
      {"measurement": "IC50", "setting": "[22]; NCI-H2228, read-out: Indisulam IC50 (log 10) (converted), U2AF1 WT", "value": 1260, "unit": "nM"},
      {"measurement": "IC50", "setting": "[22]; NCI-H2228, read-out: Indisulam IC50, U2AF1 WT", "value": 1260, "unit": "nM"},
      {"measurement": "IC50", "setting": "[23]; NCI-H2126, read-out: Indisulam IC50 (log 10) (converted), U2AF1 WT", "value": 20.5, "unit": "µM"},
      {"measurement": "IC50", "setting": "[23]; NCI-H2126, read-out: Indisulam IC50, U2AF1 WT", "value": 20.5, "unit": "µM"},
      {"measurement": "IC50", "setting": "[24]; NCI-H1648, read-out: Indisulam IC50 (log 10) (converted), U2AF1 WT", "value": 16.8, "unit": "µM"},
      {"measurement": "IC50", "setting": "[24]; NCI-H1648, read-out: Indisulam IC50, U2AF1 WT", "value": 16.8, "unit": "µM"},
      {"measurement": "IC50", "setting": "[25]; read-out: Indisulam IC50 (log 10) (converted), U2AF1 WT (listed twice)", "value": "≥ 50", "unit": "µM"},
      {"measurement": "IC50", "setting": "[25]; read-out: Indisulam IC50, U2AF1 WT (listed twice)", "value": "≥ 50", "unit": "µM"},
      {"measurement": "IC50", "setting": "[26]; NCI-H3122, read-out: Indisulam IC50 (log 10) (converted), U2AF1 WT", "value": 70.1, "unit": "µM"},
      {"measurement": "IC50", "setting": "[26]; NCI-H3122, read-out: Indisulam IC50, U2AF1 WT", "value": 70.1, "unit": "µM"}
    ]}
  ]
}
